Literature values, collected in PubChem BioAssay AID1259409 (Chemical Carcinogenesis Research Information System (CCRIS), 2018).

Test system: rodent chemically induced tumor inhibition, incidence and multiplicity
Assay: CCRIS tumor inhibitor studies
Details: Dose [Inhibitor]: 0

Structure (SMILES): COc1cc(/C=C/C(=O)CC(=O)/C=C/c2ccc(O)c(OC)c2)ccc1O
- tumour outcome (control, treated, inhibition, significance) (Carcinogen: AZOXYMETHANE, 25843-45-2, 4% COMMERCIAL GRADE CURCUMIN IN DIET FOR 35 WK BEGINNING 2 WK PRIOR TO CARCINOGEN TREATMENT (STUDY DURATION: 35 WK), Route [Inhibitor]: ORAL, Species: MOUSE, Strain/Sex: CF-1/FEMALE, Target Tissue: Type of Lesion: COLON: ADENOCARCINOMA, Dose [Carcinogen]: 10 MG/KG BW IN 100 µL NORMAL SALINE 1/WK FOR 6 WK, Promoter: NONE USED): 40%, 15%, 63%, not significant
- tumour outcome (control, treated, inhibition, significance) (Carcinogen: AZOXYMETHANE, 25843-45-2, 4% COMMERCIAL GRADE CURCUMIN IN DIET FOR 35 WK BEGINNING 2 WK PRIOR TO CARCINOGEN TREATMENT (STUDY DURATION: 35 WK), Route [Inhibitor]: ORAL, Species: MOUSE, Strain/Sex: CF-1/FEMALE, Target Tissue: Type of Lesion: COLON: ADENOMA, Dose [Carcinogen]: 10 MG/KG BW IN 100 µL NORMAL SALINE 1/WK FOR 6 WK, Promoter: NONE USED): 93%, 56%, 40%, not significant
- tumour outcome (control, treated, inhibition, significance) (Carcinogen: AZOXYMETHANE, 25843-45-2, 200O PPM IN DIET FOR 56 WK BEGINNING 2 WK PRIOR TO CARCINOGEN TREATMENT (STUDY DURATION: 56 WK), Route [Inhibitor]: ORAL, Species: RAT, Strain/Sex: F344/MALE, Target Tissue: Type of Lesion: COLON: ADENOCARCINOMA, Dose [Carcinogen]: 15 MG/KG BW 1/WK FOR 2 WK, Promoter: NONE USED): 81%, 47%, 42%, p<0.004
- tumour outcome (control, treated, inhibition, significance) (Carcinogen: BENZO[A]PYRENE, 50-32-8, 0.5% COMMERCIAL GRADE CURCUMIN IN DIET FOR 7 WK BEGINNING 2 WK PRIOR TO CARCINOGEN TREATMENT (STUDY DURATION: 30 WK), Route [Inhibitor]: ORAL, Species: MOUSE, Strain/Sex: STRAIN-A/FEMALE, Target Tissue: Type of Lesion: FORESTOMACH: PAPILLOMA, Dose [Carcinogen]: 1.5 MG IN 100 µL CORN OIL 1/WK FOR 4 WK, Promoter: NONE USED): 97%, 87%, 10%, not significant
- tumour outcome (control, treated, inhibition, significance) (Carcinogen: BENZO[A]PYRENE, 50-32-8, 0.5% COMMERCIAL GRADE CURCUMIN IN DIET FOR 7 WK BEGINNING 2 WK PRIOR TO CARCINOGEN TREATMENT (STUDY DURATION: 30 WK), Route [Inhibitor]: ORAL, Species: MOUSE, Strain/Sex: STRAIN-A/FEMALE, Target Tissue: Type of Lesion: FORESTOMACH: SQUAMOUS CELL CARCINOMA, Dose [Carcinogen]: 1.5 MG IN 100 µL CORN OIL 1/WK FOR 4 WK, Promoter: NONE USED): 41%, 23%, 44%, not significant
- tumour outcome (control, treated, inhibition, significance) (Carcinogen: BENZO[A]PYRENE, 50-32-8, 0.5% COMMERCIAL GRADE CURCUMIN IN DIET FOR 23 WK BEGINNING 1 WK POST CARCINOGEN TREATMENT (STUDY DURATION: 30 WK), Route [Inhibitor]: ORAL, Species: MOUSE, Strain/Sex: STRAIN-A/FEMALE, Target Tissue: Type of Lesion: FORESTOMACH: PAPILLOMA, Dose [Carcinogen]: 1.5 MG IN 100 µL CORN OIL 1/WK FOR 4 WK, Promoter: NONE USED): 97%, 89%, 8%, not significant
- tumour outcome (control, treated, inhibition, significance) (Carcinogen: BENZO[A]PYRENE, 50-32-8, 0.5% COMMERCIAL GRADE CURCUMIN IN DIET FOR 23 WK BEGINNING 1 WK POST CARCINOGEN TREATMENT (STUDY DURATION: 30 WK), Route [Inhibitor]: ORAL, Species: MOUSE, Strain/Sex: STRAIN-A/FEMALE, Target Tissue: Type of Lesion: FORESTOMACH: SQUAMOUS CELL CARCINOMA, Dose [Carcinogen]: 1.5 MG IN 100 µL CORN OIL 1/WK FOR 4 WK, Promoter: NONE USED): 41%, 30%, 27%, not significant
- tumour outcome (control, treated, inhibition, significance) (Carcinogen: BENZO[A]PYRENE, 50-32-8, 2% COMMERCIAL GRADE CURCUMIN IN DIET FOR 7 WK BEGINNING 2 WK PRIOR TO CARCINOGEN TREATMENT (STUDY DURATION: 30 WK), Route [Inhibitor]: ORAL, Species: MOUSE, Strain/Sex: STRAIN-A/FEMALE, Target Tissue: Type of Lesion: FORESTOMACH: PAPILLOMA, Dose [Carcinogen]: 1.5 MG IN 100 µL CORN OIL 1/WK FOR 4 WK, Promoter: NONE USED): 97%, 83%, 14%, not significant
- tumour outcome (control, treated, inhibition, significance) (Carcinogen: BENZO[A]PYRENE, 50-32-8, 2% COMMERCIAL GRADE CURCUMIN IN DIET FOR 7 WK BEGINNING 2 WK PRIOR TO CARCINOGEN TREATMENT (STUDY DURATION: 30 WK), Route [Inhibitor]: ORAL, Species: MOUSE, Strain/Sex: STRAIN-A/FEMALE, Target Tissue: Type of Lesion: FORESTOMACH: SQUAMOUS CELL CARCINOMA, Dose [Carcinogen]: 1.5 MG IN 100 µL CORN OIL 1/WK FOR 4 WK, Promoter: NONE USED): 41%, 10%, 76%, not significant
- tumour outcome (control, treated, inhibition, significance) (Carcinogen: BENZO[A]PYRENE, 50-32-8, 2% COMMERCIAL GRADE CURCUMIN IN DIET FOR 23 WK BEGINNING 1 WK POST CARCINOGEN TREATMENT (STUDY DURATION: 30 WK), Route [Inhibitor]: ORAL, Species: MOUSE, Strain/Sex: STRAIN-A/FEMALE, Target Tissue: Type of Lesion: FORESTOMACH: PAPILLOMA, Dose [Carcinogen]: 1.5 MG IN 100 µL CORN OIL 1/WK FOR 4 WK, Promoter: NONE USED): 97%, 79%, 19%, not significant
- tumour outcome (control, treated, inhibition, significance) (Carcinogen: BENZO[A]PYRENE, 50-32-8, 2% COMMERCIAL GRADE CURCUMIN IN DIET FOR 23 WK BEGINNING 1 WK POST CARCINOGEN TREATMENT (STUDY DURATION: 30 WK), Route [Inhibitor]: ORAL, Species: MOUSE, Strain/Sex: STRAIN-A/FEMALE, Target Tissue: Type of Lesion: FORESTOMACH: SQUAMOUS CELL CARCINOMA, Dose [Carcinogen]: 1.5 MG IN 100 µL CORN OIL 1/WK FOR 4 WK, Promoter: NONE USED): 41%, 14%, 66%, not significant
- tumour outcome (control, treated, inhibition, significance) (Carcinogen: BENZO[A]PYRENE, 50-32-8, 3 UMOL IN ACETONE 1/WK FOR 10 WK APPLIED 5 MIN PRIOR TO EACH CARCINOGEN DOSE (STUDY DURATION: 32 WK), Route [Inhibitor]: DERMAL, Species: MOUSE, Strain/Sex: CD-1/FEMALE, Target Tissue: Type of Lesion: SKIN: TUMORS, Dose [Carcinogen]: 20 NMOL 1/WK FOR 10 WK, Promoter: 12-O-TETRADECANOYLPHORBOL-13-ACETATE, 16561-29-8): 100%, 75%, 25%, not calculated
- tumour outcome (control, treated, inhibition, significance) (Carcinogen: BENZO[A]PYRENE, 50-32-8, 5% IN DIET FOR 8 WK BEGINNING 2 WK PRIOR TO CARCINOGEN TREATMENT (STUDY DURATION: 20 WK), Route [Inhibitor]: ORAL, Species: MOUSE, Strain/Sex: SWISS/FEMALE, Target Tissue: Type of Lesion: FORESTOMACH: TUMOR, Dose [Carcinogen]: 1 MG IN 0.1 ML PEANUT OIL 2/WK FOR 4 WK, Promoter: NONE USED): 20/20 (100%), 12/20 (60%), 40%, p<0.001
- tumour outcome (control, treated, inhibition, significance) (Carcinogen: BENZO[A]PYRENE, 50-32-8, 10 UMOL IN ACETONE 1/WK FOR 10 WK APPLIED 5 MIN PRIOR TO EACH CARCINOGEN DOSE (STUDY DURATION: 32 WK), Route [Inhibitor]: DERMAL, Species: MOUSE, Strain/Sex: CD-1/FEMALE, Target Tissue: Type of Lesion: SKIN: TUMORS, Dose [Carcinogen]: 20 NMOL 1/WK FOR 10 WK, Promoter: 12-O-TETRADECANOYLPHORBOL-13-ACETATE, 16561-29-8): 100%, 82%, 18%, not calculated
